For one assay, the target named is T1, human CB1 receptors (Homo sapiens, UniProt P21554).
T1 construct: expressed in transfected cells; host or cells: CHO cells
In words: functional cAMP assay, CHO cells expressing human CB1. It counts as cell-based. On the procedure:
(§1) CHO cells expressing human CB1 or CB2 receptors are seeded 17-24 hours prior to the experiment 50.000 cells per well in a black 96 well plate with flat clear bottom (Corning Costar #3904) in DMEM (Invitrogen No. 31331), 1×HT supplement, with 10% fetal calf serum and incubated at 5% CO2 and 37° C. in a humidified incubator. The growth medium was exchanged with Krebs Ringer Bicarbonate buffer with 1 mM IBMX and incubated at 30° C. for 30 min. Compounds were added to a final assay volume of 100 μl and incubated for 30 min at 30° C. Using the cAMP-Nano-TRF detection kit the assay (Roche Diagnostics) was stopped by the addition of 50 μl lysis reagent (Tris, NaCl, 1.5% Triton X100, 2.5% NP40, 10% NaN3) and 50 μl detection solutions (20 μM mAb Alexa700-cAMP 1:1, and 48 μM Ruthenium-2-AHA-cAMP) and shaken for 2 h at room temperature. The time-resolved energy transfer is measured by a TRF reader (Evotec Technologies GmbH), equipped with a ND:YAG laser as excitation source. The plate is measured twice with the excitation at 355 nm and at the emission with a delay of 100 ns and a gate of 100 ns, total exposure time 10 s at 730 (bandwidth 30 nm) or 645 nm (bandwidth 75 nm), respectively. The FRET signal is calculated as follows: FRET=T730-Alexa730-P(T645-B645) with P=Ru730-B730/Ru645-B645, where T730 is the test well measured at 730 nM, T645 is the test well measured at 645 nm, B730 and B645 are the buffer controls at 730 nm and 645 nm, respectively. cAMP content is determined from the function of a standard curve spanning from 10 μM to 0.13 nM cAMP.
(§2) EC50 values were determined using Activity Base analysis (ID Business Solution, Limited). The EC50 values for a wide range of cannabinoid agonists generated from this assay were in agreement with the values published in the scientific literature.
On the technique in general: Cyclic AMP is a second messenger, typically raised through Gs and lowered through Gi signalling.

In the next assay the target is T2, human CB2 receptors (Homo sapiens, UniProt P34972).
T2 construct: expressed in transfected cells; host or cells: CHO cells
T2 sequence (P34972 whole entry): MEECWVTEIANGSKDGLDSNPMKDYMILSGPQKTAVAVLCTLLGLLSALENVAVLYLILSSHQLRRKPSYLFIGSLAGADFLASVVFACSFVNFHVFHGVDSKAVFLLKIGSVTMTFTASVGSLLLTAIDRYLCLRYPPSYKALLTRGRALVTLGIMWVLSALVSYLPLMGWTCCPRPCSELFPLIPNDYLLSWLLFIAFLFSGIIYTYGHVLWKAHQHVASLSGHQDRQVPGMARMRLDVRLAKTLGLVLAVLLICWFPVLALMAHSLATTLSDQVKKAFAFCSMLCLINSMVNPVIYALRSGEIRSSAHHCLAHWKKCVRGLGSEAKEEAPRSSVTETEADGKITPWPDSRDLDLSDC
In words: functional cAMP assay, CHO cells expressing human CB2. It counts as cell-based. On the procedure:
as §1, §2

The mark [1] stands for this setting: functional cAMP assay, CHO cells expressing human CB2, read-out: Human CB2 EC50.

In general, EC50 refers to the concentration at which the effect is half-maximal.

Read-outs that look alike come from different tables or passages of the source.

T1 sequence (P21554 whole entry): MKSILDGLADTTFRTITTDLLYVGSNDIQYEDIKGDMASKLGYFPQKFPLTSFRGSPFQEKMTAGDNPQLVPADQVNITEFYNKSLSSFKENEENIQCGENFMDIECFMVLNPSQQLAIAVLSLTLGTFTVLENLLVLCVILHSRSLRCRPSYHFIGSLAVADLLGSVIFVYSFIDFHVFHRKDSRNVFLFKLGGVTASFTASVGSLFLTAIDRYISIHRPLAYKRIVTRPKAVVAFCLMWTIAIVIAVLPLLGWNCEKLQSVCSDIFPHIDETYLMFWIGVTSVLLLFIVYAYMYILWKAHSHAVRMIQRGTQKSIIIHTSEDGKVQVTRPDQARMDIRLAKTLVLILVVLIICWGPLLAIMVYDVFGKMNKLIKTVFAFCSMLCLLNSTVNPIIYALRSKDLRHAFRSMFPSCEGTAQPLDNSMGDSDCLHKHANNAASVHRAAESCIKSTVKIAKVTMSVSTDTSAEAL

With `NC(=O)CC1(NC(=O)c2ccc(C3CC3)c(OCC(F)(F)F)c2)CS(=O)(=O)C1` [Example 27, N-[3-(2-Amino-2-oxoethyl)-1,1-dioxothietan-3-yl]-4-cyclopropyl-3-(2,2,2-trifluoroethoxy)benzamide], the values for the EC50 on human CB1 receptors and on human CB2 receptors were greater than 10000 nM and 98 nM, respectively.
On the same counts, the results for `CC(C)Oc1cc(C(=O)N[C@@](C)(CC(N)=O)C2CC2)ccc1C1CC1` [Example 43, N-[(2S)-4-Amino-2-cyclopropyl-4-oxobutan-2-yl]-4-cyclopropyl-3-[(propan-2-yl)oxy]benzamide] are greater than 10000 nM and 30.8 nM.
`CCOC(=O)C(CC)(CC)NC(=O)c1ccc(C2CC2)c(OCC2CC2)c1` [Example 7, Ethyl 2-[4-cyclopropyl-3-(cyclopropylmethoxy)benzamido]-2-ethylbutanoate]: the EC50 on human CB1 receptors is greater than 10000 nM; at human CB2 receptors, 1.44 nM.
Regarding `CCC(CC)(NC(=O)c1ccc(C2CC2)c(OCC2CC2)c1)C(N)=O` [Example 18, N-(3-Carbamoylpentan-3-yl)-4-cyclopropyl-3-(cyclopropylmethoxy)benzamide], the EC50 was greater than 10000 nM on human CB1 receptors and 233 nM on human CB2 receptors (setting [1]).
Regarding `NC(=O)CC1(NC(=O)c2ccc(C3CC3)c(OCC3CC3)c2)CS(=O)(=O)C1` [Example 16, N-[3-(2-Amino-2-oxoethyl)-1,1-dioxothietan-3-yl]-4-cyclopropyl-3-(cyclopropylmethoxy)benzamide], the EC50 was greater than 10000 nM on human CB1 receptors and 2.65 nM on human CB2 receptors.
On to `Cc1nc([C@@](C)(CC2CC2)NC(=O)c2ccc(C3CC3)c(OCC(F)(F)F)c2)no1` [Example 25, (−)-4-Cyclopropyl-N-[1-cyclopropyl-2-(5-methyl-1,2,4-oxadiazol-3-yl)propan-2-yl]-3-(2,2,2-trifluoroethoxy)benzamide], for which the EC50 on human CB1 receptors is greater than 10000 nM; on human CB2 receptors, 40.3 nM.
Take `CNC(=O)[C@@H](NC(=O)c1ccc(C2CC2)c(OCC(F)(F)F)c1)C(C)(C)C` [Example 41, 4-Cyclopropyl-N-[(2S)-3,3-dimethyl-1-(methylamino)-1-oxobutan-2-yl]-3-(2,2,2-trifluoroethoxy)benzamide]: the figures for the EC50 on human CB1 receptors and on human CB2 receptors were 586 nM and 10 nM, respectively.
On the same counts, the results for `C[C@@](CC(N)=O)(NC(=O)c1ccc(C2CC2)c(N2CCC(F)(F)C2)c1)C1CC1` [Example 62, N-[(2S)-4-Amino-2-cyclopropyl-4-oxobutan-2-yl]-4-cyclopropyl-3-(3,3-difluoropyrrolidin-1-yl)benzamide] are greater than 10000 nM and 25.9 nM.
The like results for `Cc1nc([C@@](C)(CC2CC2)NC(=O)c2ccc(C3CC3)c(OCC(F)F)c2)no1` [Example 31, (−)-4-Cyclopropyl-N-[1-cyclopropyl-2-(5-methyl-1,2,4-oxadiazol-3-yl)propan-2-yl]-3-(2,2-difluoroethoxy)benzamide] were, in that order, greater than 10000 nM and 16.6 nM.
On the same counts, the results for `CNC(=O)[C@H](CC(C)C)NC(=O)c1ccc(C2CC2)c(OCC2CC2)c1` [Example 19, N^2-[4-cyclopropyl-3-(cyclopropylmethoxy)benzoyl]-N-methyl-L-leucinamide] are greater than 10000 nM and 19.6 nM.
On to `Cc1nc([C@](C)(CC2CC2)NC(=O)c2ccc(C3CC3)c(-c3ccnn3C)c2)no1` [Example 59, 4-Cyclopropyl-N-[(2S)-1-cyclopropyl-2-(5-methyl-1,2,4-oxadiazol-3-yl)propan-2-yl]-3-(1-methyl-1H-pyrazol-5-yl)benzamide], for which the EC50 at human CB1 receptors is greater than 10000 nM; at human CB2 receptors (setting [1]), 282 nM.
In the case of `C[C@@](CC(N)=O)(NC(=O)c1ccc(C2CC2)c(OCC(F)(F)F)c1)C1CC1` [Example 51, N-[(2S)-4-Amino-2-cyclopropyl-4-oxobutan-2-yl]-4-cyclopropyl-3-(2,2,2-trifluoroethoxy)benzamide], the values for the EC50 at human CB1 receptors and at human CB2 receptors were greater than 10000 nM and 80.8 nM, respectively.
The like results for `CC(C)(C)c1nc(-c2ccc(C3CC3)c(OCC(F)(F)F)c2)no1` [Example 23, 5-tert-Butyl-3-[4-cyclopropyl-3-(2,2,2-trifluoroethoxy)phenyl]-1,2,4-oxadiazole] were, in that order, greater than 10000 nM and 25.9 nM.
The like results for `Cc1nc([C@@](C)(CC2CC2)NC(=O)c2ccc(C3CC3)c(OCCF)c2)no1` [Example 33] were, in that order, greater than 10000 nM and 59.4 nM.
On the same counts, the results for `CNC(=O)[C@H](CC(C)C)NC(=O)c1ccc(N2CC(F)(F)C2)c(OCC2CC2)c1` [Example 12, N^2-[3-(cyclopropylmethoxy)-4-(3,3-difluoroazetidin-1-yl)benzoyl]-N-methyl-L-leucinamide] are greater than 10000 nM and 66.4 nM.
`CC(C)(NC(=O)c1ccc(N2CC(F)(F)C2)c(OCC2CC2)c1)c1noc(N)n1` [Example 11, N-[2-(5-Amino-1,2,4-oxadiazol-3-yl)propan-2-yl]-3-(cyclopropylmethoxy)-4-(3,3-difluoroazetidin-1-yl)benzamide]: the EC50 at human CB1 receptors is greater than 10000 nM; on human CB2 receptors, 98.7 nM.
Turning to `Cc1nc([C@](C)(CC2CC2)NC(=O)c2ccc(C3CC3)c(OC(C)C)c2)no1` (single isomer, unassigned) [Example 38, 4-Cyclopropyl-N-[(2S)-1-cyclopropyl-2-(5-methyl-1,2,4-oxadiazol-3-yl)propan-2-yl]-3-[(propan-2-yl)oxy]benzamide or enantiomer], the EC50 on human CB1 receptors is greater than 10000 nM; at human CB2 receptors it was 26.6 nM.
The like results for `NC(=O)[C@@H]1CC(F)(F)CN1C(=O)c1ccc(C2CC2)c(N2CCC(F)(F)C2)c1` [Example 65, 1-[4-Cyclopropyl-3-(3,3-difluoropyrrolidin-1-yl)benzoyl]-4,4-difluoro-L-prolinamide] were, in that order, greater than 10000 nM and 18.1 nM.
Take `Cc1nc(C(C)(C)NC(=O)c2ccc(N3CC(F)(F)C3)c(OCC3CC3)c2)no1` [Example 10, 3-(Cyclopropylmethoxy)-4-(3,3-difluoroazetidin-1-yl)-N-[2-(5-methyl-1,2,4-oxadiazol-3-yl)propan-2-yl]benzamide]: the EC50 at human CB1 receptors was greater than 10000 nM; on human CB2 receptors, 32.9 nM.
Consider `C[C@](CC(N)=O)(NC(=O)c1ccc(C2CC2)c(-c2ccc(F)nc2)c1)C1CC1` [Example 52, N-[(2R)-4-Amino-2-cyclopropyl-4-oxobutan-2-yl]-4-cyclopropyl-3-(6-fluoropyridin-3-yl)benzamide], for which the EC50 is greater than 10000 nM at human CB1 receptors and 9.76 nM on human CB2 receptors.
The like results for `C[C@@](CC(N)=O)(NC(=O)c1ccc(C2CC2)c(OCC(F)(F)F)c1)C1CC1` (single isomer, unassigned) [Example 35, (−)-N-[4-Amino-2-cyclopropyl-4-oxobutan-2-yl]-4-cyclopropyl-3-(2,2,2-trifluoroethoxy)benzamide] were, in that order, greater than 10000 nM and 8.56 nM.
The like results for `NC(=O)[C@@H]1CC(F)(F)CN1C(=O)c1ccc(C2CC2)c(OCC2CC2)c1` [Example 17, 1-[4-Cyclopropyl-3-(cyclopropylmethoxy)benzoyl]-4,4-difluoro-L-prolinamide] were, in that order, greater than 10000 nM and 0.51 nM.
On the same counts, the results for `NC(=O)C1CC2(CC2)CN1C(=O)c1ccc(C2CC2)c(OCC2CC2)c1` (stereo not drawn) [Example 22, 5-[4-Cyclopropyl-3-(cyclopropylmethoxy)benzoyl]-5-azaspiro[2.4]heptane-6-carboxamide] are greater than 10000 nM and 28.1 nM.
`CC(C)Oc1cc(C(=O)N[C@](C)(CC(N)=O)C2CC2)ccc1C1CC1` [Example 44, N-[(2R)-4-Amino-2-cyclopropyl-4-oxobutan-2-yl]-4-cyclopropyl-3-[(propan-2-yl)oxy]benzamide]: the values for the EC50 at human CB1 receptors and on human CB2 receptors were 1090 nM and 2.91 nM, respectively.
In the case of `C[C@](CC(N)=O)(NC(=O)c1ccc(C2CC2)c(OCCF)c1)C1CC1` [Example 45, N-[(2R)-4-Amino-2-cyclopropyl-4-oxobutan-2-yl]-4-cyclopropyl-3-(2-fluoroethoxy)benzamide], the EC50 was greater than 10000 nM on human CB1 receptors and 7.42 nM at human CB2 receptors.
Consider `Cc1nc([C@@](C)(CC2CC2)NC(=O)c2ccc(C3CC3)c(-c3ccc(F)nc3)c2)no1` [Example 50, 4-Cyclopropyl-N-[(2R)-1-cyclopropyl-2-(5-methyl-1,2,4-oxadiazol-3-yl)propan-2-yl]-3-(6-fluoropyridin-3-yl)benzamide], for which the EC50 at human CB1 receptors is greater than 10000 nM; at human CB2 receptors, 53.7 nM.
As to `Cc1nc([C@](C)(CC2CC2)NC(=O)c2ccc(C3CC3)c(N3CCC(F)(F)C3)c2)no1` [Example 64, 4-Cyclopropyl-N-[(2S)-1-cyclopropyl-2-(5-methyl-1,2,4-oxadiazol-3-yl)propan-2-yl]-3-(3,3-difluoropyrrolidin-1-yl)benzamide], the figures for the EC50 at human CB1 receptors and on human CB2 receptors were greater than 10000 nM and 1.08 nM, respectively.
